Reference: patent publication US9249157B2, “Tricyclic heterocycle compounds” (BRISTOL-MYERS SQUIBB COMPANY, priority 2012, dated 2016)

Assays:
human Notch 3 = assay: Notch-CBF1 Transactivation Assay (Notch 3); type: cell-based; conditions: HeLa cells transfected with truncated Notch 3 and CBF1 luciferase reporter; 18 hours incubation
Source text: Notch-CBF1 Transactivation Assay
The Notch-CBF1 (C-promoter binding factor I) cell based transactivation assay is based on the ability of the released Notch intracellular domain fragments (NICDs) to function as transcription factors in conjunction with CBF1 and other nuclear factors. Luciferase assays were used to measure the antagonism of Notch-CBF1 transcriptional activity. HeLa cervical cancer cells are transiently co-transfected with pCDNA3.1/Hygro plasmids containing truncated Notch 1, Notch 2, Notch 3, or Notch 4 receptors and a PGL3 luciferase reporter vector containing 4 copies of CBF1 binding site. The cells were then tested for Notch-CBF1 activity in the absence or presence of test compounds. HeLa cells, maintained in DMEM (high glucose with HEPES), 1× glutamine/penicillin/streptomycin and 10% Fetal Bovine serum, were transiently transfected in a T175 Flask (4.5×10^6 cells/flask) using the Monster Transfection Kit (Minis #MIR2906) according to manufacturers specifications. Table 1 denotes respective DNA quantity for the transfections.
Six hours post-transfection, cells were trypsinized and plated into a 384-well black Poly-D-lysine coated tissue culture plate at a density of 5×10^3 cells/well in 95 μL assay media (DMEM (high glucose with HEPES), 1× glutamine/penicillin/streptomycin, 0.0125% BSA, 1× non-essential amino acids). Assay media (5 μL) containing test compounds in final concentrations ranging from 5 μM to 8.4×10^−5 μM (3 fold serial dilutions) were added to the cells and the cell plates were then incubated for 18 hours at 37° C. and 5% CO2. Control wells contained DMSO vehicle (total counts) or 0.5 μM of an in-house small molecule inhibitor (background counts). Duplicates were used for each sample. Luciferase activity was measured after a 20-minute incubation with 50 μl STEADY-GLO® luciferase reagents according to manufacturer's specifications (Promega, Cat. #E2550) and analyzed by Envision plate reader (PerkinElmer, Boston, Mass.).
The antagonist effect of compounds was expressed as 100×[1−(average sample−average background)/(average total−average background)] where sample is the luciferase activity in the presence of test compound, background is equal to the luciferase activity in the presence of the small molecule inhibitor control and the total is signal induced in DMSO wells.

TALL1 = assay: Human Tumor Xenograft Models in Mice, TALL1; type: in vivo; conditions: 60 mg/kg, QDx10, oral administration; LCK = Log Cell Kill
Source text: Human Tumor Xenograft Models in Mice
All rodents were obtained from Harlan Sprague Dawley Co. (Indianapolis, Ind.), and maintained in an ammonia-free environment in a defined and pathogen—free colony. All mice were quarantined approximately 1 week prior to their use for tumor propagation and drug efficacy testing. Mice were fed food and water ad libitum. The animal care program of Bristol-Myers Squibb Pharmaceutical Research Institute is fully accredited by the American Association for Accreditation of Laboratory Animal Care (AAALAC). All experiments were performed in accordance with Bristol-Myers Squibb (BMS) animal test methods and guidelines. […]
The required numbers of animals needed to detect a meaningful response were pooled at the start of the experiment and each was given a subcutaneous implant of a tumor fragment (˜20 mg) with a 13-gauge trocar. Tumors were allowed to grow to the pre-determined size window (tumors outside the range were excluded) and animals were evenly distributed to various treatment and control groups. […]
Tumor response was determined by measurement of tumors with a caliper twice a week, until the tumors reached a predetermined “target” size of 0.5 gm or 1 gm depending on the tumor type. […]
Tumor response criteria are expressed in terms of tumor growth inhibition (% TGI). […] For this purpose, the tumor weight of a group is expressed as […] tumor weight (MTW). […]

[1] = High Throughput Metabolic Stability Panel, rat microsomes; type: in vitro ADME; conditions: 10 minute incubation, 0.5 μM, control compound expected range
Procedure: (§1) High Throughput (HT) Metabolic Stability Panel
(§2) The metabolic stability assay evaluated CYP-mediated metabolic stability in vitro using human, rat, mouse, dog, and/or monkey microsomes after a ten-minute incubation. Each compound was tested in duplicate.
(§3) Test compound was received as a 3.5 mM stock solution in 100 percent DMSO. The test compound was diluted to create a 50 μM acetonitrile (ACN) solution containing 1.4% DMSO, which was then used as a 100× stock for incubation with microsomes. Each compound was tested in duplicate separately in each of three species in the Metabolic Stability-Human, Rat, and Mouse assay suite or as individual species in the Metabolic Stability-Dog or Metabolic Stability-Monkey suites. Compound, NADPH, and liver microsome solutions were combined for incubation in three steps:
(§4) 1. 152 μl of liver microsome suspension, protein concentration of 1.1 mg/ml in 100 mM NaPi, pH 7.4, 5 mM MgCl2 buffer, was pre-warmed at 37° C.
(§5) 3. The reaction was initiated by the addition of 17 μl of pre-warmed 10 mM NADPH solution in 100 mM NaPi, pH 7.4.
(§6) The reaction components were mixed well, and 75 μl of the reaction mixture was immediately transferred into 150 μl quench/stop solution (zero-time point, T0). Reactions were incubated at 37° C. for 10 minutes and then an additional 75 μl aliquot was transferred into 150 μl quench solution. […]

[2] = High Throughput Metabolic Stability Panel, human microsomes; type: in vitro ADME; conditions: 10 minute incubation, 0.5 μM, control compound expected range
Procedure: as §1, §2, §3, §4, §5, §6

[3] = High Throughput Metabolic Stability Panel, mouse microsomes; type: in vitro ADME; conditions: 10 minute incubation, 0.5 μM, control compound expected range
Procedure: as §1, §2, §3, §4, §5, §6

[4] = High Throughput Metabolic Stability Panel, dog microsomes; type: in vitro ADME; conditions: 10 minute incubation, 0.5 μM, control compound expected range
Procedure: as §1, §2, §3, §4, §5, §6

[5] = High Throughput Metabolic Stability Panel, monkey microsomes; type: in vitro ADME; conditions: 10 minute incubation, 0.5 μM, control compound expected range
Procedure: as §1, §2, §3, §4, §5, §6

| Average Percent Remaining ± SD, Rat [1] [%] | Average Percent Remaining ± SD, Human [2] [%] | Average Percent Remaining ± SD, Mouse [3] [%] | Average Percent Remaining ± SD, Dog [4] [%] | Average Percent Remaining ± SD, Monkey [5] [%] | SMILES | IC50 (human Notch 3) [nM] | Antitumor Activity TALL1 (LCK) (TALL1) |
| --- | --- | --- | --- | --- | --- | --- | --- |
|  |  |  |  |  | CCC[C@H](C(N)=O)[C@@H](CCC(F)(F)F)C(=O)N[C@H]1N=C(c2ccccc2)c2cccc3c2N(CCO3)C1=O [Example 7, (2R,3S)—N-((6S)-5-Oxo-8-phenyl-2,3,5,6-tetrahydro[1,4]oxazino[2,3,4-jk][1,4]benzodiazepin-6-yl)-3-propyl-2-(3,3,3-trifluoropropyl)succinamide] | 14.8 | 0.7 |
| 0.7 ± 0.6 | 0.4 ± 0.4 | 0.4 ± 0.3 | 0.4 ± 0.4 | 0.6 ± 0.5 | CCc1nn(CCCN2CCN(c3cccc(Cl)c3)CC2)c(=O)n1CCOc1ccccc1 [Nefazodone] |  |  |
